Data published in ChEMBL document CHEMBL1126278, “New neplanocin analogues. 1. Synthesis of 6'-modified neplanocin A derivatives as broad-spectrum antiviral agents” (J Med Chem, 1992).
Values after ≈ are worked out from the molar mass of the structure shown.

Assays:
HeLa [1] = assay: Inhibitory effect on replication of RNA virus VSV in HeLa cell line.; format: functional, cell-based; conditions: Homo sapiens
HEL [2] = assay: Inhibitory effect on replication of DNA virus TK-VZV (YSR) on HEL cell line.; format: functional, cell-based; conditions: Homo sapiens
Vero [3] = assay: Inhibitory effect on replication of RNA virus TV in Vero cell line.; format: functional, cell-based; conditions: Chlorocebus sabaeus
PRK [4] = assay: Inhibitory effect on replication of RNA virus cell morphology in PRK cell line.; format: functional, cell-based; conditions: Oryctolagus cuniculus
HeLa [5] = assay: Inhibitory effect on replication of RNA virus coxsB-4 in HeLa cell line.; format: functional, cell-based; conditions: Homo sapiens
HEL [6] = assay: Inhibitory effect on replication of DNA virus VZV (YS) on HEL cell line.; format: functional, cell-based; conditions: Homo sapiens
HeLa [7] = assay: Inhibitory effect on replication of RNA virus RSV in HeLa cell line; format: functional, cell-based; conditions: Homo sapiens
MT4 [8] = assay: Inhibitory effect on replication of RNA virus cell growth in MT-4 cell line.; format: functional, cell-based; conditions: Homo sapiens
HEL [9] = assay: Inhibitory effect on replication of DNA virus TK-VZV (07-1) on HEL cell line.; format: functional, cell-based; conditions: Homo sapiens
HEL [10] = assay: Inhibitory effect on replication of DNA virus CMV (AD-169) on HEL cell line.; format: functional, cell-based; conditions: Homo sapiens
Vero [11] = assay: Inhibitory effect on replication of RNA virus reo-1 in Vero cell line.; format: functional, cell-based; conditions: Chlorocebus sabaeus
Vero [12] = assay: (§1) Inhibitory effect on replication of RNA virus cell morphology in Vero cell line.; format: functional, cell-based; conditions: Chlorocebus sabaeus
PRK [13] = assay: Inhibitory effect on replication of DNA virus VV on PRK cell line.; format: functional, cell-based; conditions: Oryctolagus cuniculus
HeLa [14] = assay: cells; conditions: Homo sapiens
HEL [15] = assay: Inhibitory effect on replication of DNA virus CMV (Davis) on HEL cell line.; format: functional, cell-based; conditions: Homo sapiens
[16] = Inhibitory effect on replication of DNA virus HSV-1 (KOS) in PRK cell line.; format: functional, cell-based; conditions: Oryctolagus cuniculus
[17] = Inhibitory effect on replication of DNA virus HSV-2 (G) in PRK cell line.; format: functional, cell-based; conditions: Oryctolagus cuniculus
PRK [18] = assay: Inhibitory effect on replication of RNA virus VSV in PRK cell line.; format: functional, cell-based; conditions: Oryctolagus cuniculus
Vero [19] = assay: Inhibitory effect on replication of RNA virus PV-3 in Vero cell line.; format: functional, cell-based; conditions: Chlorocebus sabaeus
Vero [20] = assay: Inhibitory effect on replication of RNA virus protein synthesis in Vero cell line.; format: functional, cell-based; conditions: Chlorocebus sabaeus
HEL [21] = assay: Inhibitory effect on replication of DNA virus VZV (Oka) on HEL cell line.; format: functional, cell-based; conditions: Homo sapiens
MT4 [22] = assay: Inhibitory effect on replication of RNA virus HIV-1 in MT-4 cell line.; format: functional, cell-based; conditions: Homo sapiens
Vero [23] = assay: Inhibitory effect on replication of RNA virus JV in Vero cell line.; format: functional, cell-based; conditions: Chlorocebus sabaeus
Vero [24] = assay: Inhibitory effect on replication of RNA virus measles on Vero cell line.; format: functional, cell-based; conditions: Chlorocebus sabaeus
MDCK [25] = assay: cells; conditions: Canis lupus familiaris
Vero [26] = assay: Inhibitory effect on replication of RNA virus SV in Vero cell line.; format: functional, cell-based; conditions: Chlorocebus sabaeus
Vero [27] = assay: Inhibitory effect on replication of RNA virus RNA synthesis in Vero cell line.; format: functional, cell-based; conditions: Chlorocebus sabaeus
PRK [28] = assay: Inhibitory effect on replication of DNA virus Cell morphology on PRK cell line; format: functional, cell-based; conditions: Oryctolagus cuniculus
MT4 [29] = assay: Inhibitory effect on replication of RNA virus HIV-2 in MT-4 cell line.; format: functional, cell-based; conditions: Homo sapiens
Vero [30] = assay: Inhibitory effect on replication of RNA virus SFV in Vero cell line; format: functional, cell-based; conditions: Chlorocebus sabaeus
HeLa [31] = assay: Inhibitory effect on replication of RNA virus cell morphology in HeLa cell line.; format: functional, cell-based; conditions: Homo sapiens
Vero [32] = assay: Inhibitory effect on replication of RNA virus coxsB-4 in Vero cell line; format: functional, cell-based; conditions: Chlorocebus sabaeus
MDCK [33] = assay: cells; conditions: Canis lupus familiaris; remark: listed apart in the source
MDCK [34] = assay: Inhibitory effect on replication of RNA virus cell morphology in MDCK cell line.; format: functional, cell-based; conditions: Canis lupus familiaris
ESM [35] = assay: Inhibitory effect on replication of DNA virus HSV-2 (G) in ESM cell line; format: functional, cell-based
ESM [36] = assay: Inhibitory effect on replication of DNA virus TK-HSV-1 (B2006) on ESM cell line.; format: functional, cell-based
ESM [37] = assay: Inhibitory effect on replication of DNA virus Cell morphology on ESM cell line; format: functional, cell-based
ESM [38] = assay: Inhibitory effect on replication of DNA virus HSV-1 (KOS) in ESM cell line; format: functional, cell-based
ESM [39] = assay: Inhibitory effect on replication of DNA virus VV on ESM cell line.; format: functional, cell-based
HEL [40] = assay: Inhibitory effect on replication of DNA virus Cell growth on HEL cell line.; format: functional, cell-based; conditions: Homo sapiens
ESM [41] = assay: Inhibitory effect on replication of RNA virus cell morphology in ESM cell line.; format: functional, cell-based
ESM [42] = assay: Inhibitory effect on replication of DNA virus TK-HSV-1 (VMW 1837) on ESM cell line.; format: functional, cell-based
Adenosylhomocysteinase = Adenosylhomocysteinase (Mus musculus, UniProt P50247); assay: Inhibitory effect against L929 Cell S-adenosyl-L-homocysteine hydrolase
Vero [43] = assay: as §1; format: functional, cell-based, Homo sapiens; conditions: Chlorocebus sabaeus
PRK [44] = assay: Inhibitory effect on replication of virus Cell morphology on PRK cell line; format: functional, cell-based; conditions: Oryctolagus cuniculus

Chain of Adenosylhomocysteinase (P50247 whole entry): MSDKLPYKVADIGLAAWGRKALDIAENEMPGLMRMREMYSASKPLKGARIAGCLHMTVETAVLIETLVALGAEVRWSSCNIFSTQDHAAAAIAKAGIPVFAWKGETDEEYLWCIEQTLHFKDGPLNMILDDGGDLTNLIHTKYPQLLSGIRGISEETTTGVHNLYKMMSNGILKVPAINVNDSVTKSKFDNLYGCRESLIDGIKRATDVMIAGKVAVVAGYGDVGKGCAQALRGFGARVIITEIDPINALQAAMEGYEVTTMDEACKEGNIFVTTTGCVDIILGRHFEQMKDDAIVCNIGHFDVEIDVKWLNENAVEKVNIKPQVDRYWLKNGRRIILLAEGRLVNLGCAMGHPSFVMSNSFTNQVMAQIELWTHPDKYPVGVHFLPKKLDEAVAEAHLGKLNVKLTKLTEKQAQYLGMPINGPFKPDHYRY

Row | SMILES | IC50 (HEL [2]) [µg/mL] | IC50 (Vero [3]) [µg/mL] | IC50 (PRK [4]) [µg/mL] | IC50 (HeLa [5]) [µg/mL] | IC50 (HeLa [7]) [µg/mL] | IC50 (MT4 [8]) [µg/mL] | IC50 (HEL [9]) [µg/mL] | IC50 (HEL [10]) [µg/mL] | IC50 (Vero [11]) [µg/mL] | IC50 (PRK [13]) [µg/mL] | IC50 (HeLa [14]) [µg/mL] | IC50 (HEL [15]) [µg/mL] | IC50 [16] [µg/mL] | IC50 [17] [µg/mL] | IC50 (PRK [18]) [µg/mL] | IC50 (Vero [19]) [µg/mL] | IC50 (HEL [21]) [µg/mL] | IC50 (MT4 [22]) [µg/mL] | IC50 (Vero [23]) [µg/mL] | IC50 (Vero [24]) [µg/mL] | also measured
1 | Nc1ncnc2c1ncn2[C@@H]1C=C(CF)[C@@H](O)[C@H]1O | 20 (≈ 75.4 µM) | 0.4 (≈ 1.51 µM) | > 400 | > 200 | 10 (≈ 37.7 µM) | 3 (≈ 11.3 µM) | 20 (≈ 75.4 µM) | 2.5 (≈ 9.43 µM) | 2 (≈ 7.54 µM) | 2 (≈ 7.54 µM) | > 200 | 2.5 (≈ 9.43 µM) | > 400 | > 400 | 0.2 (≈ 0.754 µM) | 7 (≈ 26.4 µM) | 70 (≈ 264 µM) | > 1.5 | 0.4 (≈ 1.51 µM) | 10 (≈ 37.7 µM) | IC50 (HeLa [1]): 2 µg/mL (≈ 7.54 µM); IC50 (HEL [6]): 150 µg/mL (≈ 566 µM); IC50 (Vero [12]): 40 µg/mL (≈ 151 µM); IC50 (Vero [20]): 65 µg/mL (≈ 245 µM); IC50 (MDCK [25]): > 100 µg/mL; IC50 (Vero [26]): 7 µg/mL (≈ 26.4 µM); IC50 (Vero [27]): 5 µg/mL (≈ 18.9 µM); IC50 (PRK [28]): > 400 µg/mL; IC50 (MT4 [29]): > 1.5 µg/mL; IC50 (Vero [30]): 200 µg/mL (≈ 754 µM); IC50 (HeLa [31]): > 200 µg/mL; IC50 (Vero [32]): > 200 µg/mL; IC50 (MDCK [33]): > 100 µg/mL; IC50 (MDCK [34]): > 100 µg/mL
2 | C[C@H](O)C1=C[C@@H](n2cnc3c(N)ncnc32)[C@H](O)[C@@H]1O | 39 (≈ 141 µM) | 55 (≈ 198 µM) | > 400 | > 400 | > 100 | > 100 | 76 (≈ 274 µM) | 15 (≈ 54.1 µM) | 40 (≈ 144 µM) | 70 (≈ 252 µM) | > 400 | 9 (≈ 32.5 µM) | > 400 | > 200 | 70 (≈ 252 µM) | 100 (≈ 361 µM) | 100 (≈ 361 µM) | > 100 | 45 (≈ 162 µM) | > 100 | IC50 (ESM [35]): > 400 µg/mL; IC50 (ESM [36]): > 400 µg/mL; IC50 (ESM [37]): > 400 µg/mL; IC50 (ESM [38]): > 400 µg/mL; IC50 (ESM [39]): 40 µg/mL (≈ 144 µM); IC50 (Vero [12]): > 400 µg/mL; IC50 (HEL [40]): 132 µg/mL (≈ 476 µM); IC50 (Vero [20]): > 190 µg/mL; IC50 (ESM [41]): > 400 µg/mL; IC50 (MDCK [25]): > 100 µg/mL; IC50 (Vero [26]): 150 µg/mL (≈ 541 µM); IC50 (Vero [27]): 36 µg/mL (≈ 130 µM); IC50 (PRK [28]): > 400 µg/mL; IC50 (MT4 [29]): > 100 µg/mL; IC50 (Vero [30]): > 400 µg/mL; IC50 (HeLa [31]): > 400 µg/mL; IC50 (Vero [32]): > 200 µg/mL; IC50 (ESM [42]): > 400 µg/mL; IC50 (MDCK [33]): > 100 µg/mL; IC50 (MDCK [34]): > 100 µg/mL
3 | CC1=C[C@@H](n2cnc3c(N)ncnc32)[C@H](O)[C@@H]1O | 10 (≈ 40.4 µM) | 0.4 (≈ 1.62 µM) | > 400 | > 200 | 10 (≈ 40.4 µM) | 2.5 (≈ 10.1 µM) | 4 (≈ 16.2 µM) | 2.5 (≈ 10.1 µM) | 0.7 (≈ 2.83 µM) | 0.7 (≈ 2.83 µM) | > 200 | 1.5 (≈ 6.07 µM) | > 200 | > 200 | 0.7 (≈ 2.83 µM) | 20 (≈ 80.9 µM) | 20 (≈ 80.9 µM) | > 1.5 | 0.4 (≈ 1.62 µM) | 4 (≈ 16.2 µM) | IC50 (HeLa [1]): 7 µg/mL (≈ 28.3 µM); IC50 (HEL [6]): 2 µg/mL (≈ 8.09 µM); IC50 (Vero [12]): 40 µg/mL (≈ 162 µM); IC50 (Vero [20]): 4.7 µg/mL (≈ 19 µM); IC50 (MDCK [25]): > 100 µg/mL; Ki (Adenosylhomocysteinase): 150 nM; IC50 (Vero [26]): > 200 µg/mL; IC50 (Vero [27]): 1.7 µg/mL (≈ 6.88 µM); IC50 (PRK [28]): > 400 µg/mL; IC50 (MT4 [29]): > 1.5 µg/mL; IC50 (Vero [30]): > 200 µg/mL; IC50 (HeLa [31]): > 400 µg/mL; IC50 (Vero [32]): > 200 µg/mL; IC50 (MDCK [33]): > 100 µg/mL; IC50 (MDCK [34]): > 100 µg/mL
4 | CSCC1=C[C@@H](n2cnc3c(N)ncnc32)[C@H](O)[C@@H]1O | 5 (≈ 17 µM) | 40 (≈ 136 µM) | > 400 | > 200 | > 40 | 60 (≈ 205 µM) | 2 (≈ 6.82 µM) | 1.5 (≈ 5.11 µM) | 40 (≈ 136 µM) | 70 (≈ 239 µM) | > 200 | 1 (≈ 3.41 µM) | > 400 | > 400 | 70 (≈ 239 µM) | > 200 | 2.5 (≈ 8.52 µM) | > 40 | 40 (≈ 136 µM) | 40 (≈ 136 µM) | IC50 (HeLa [1]): > 200 µg/mL; IC50 (HEL [6]): 2 µg/mL (≈ 6.82 µM); IC50 (HEL [40]): 9 µg/mL (≈ 30.7 µM); IC50 (Vero [43]): > 400 µg/mL; IC50 (PRK [44]): > 400 µg/mL; IC50 (MDCK [25]): > 100 µg/mL; IC50 (Vero [26]): > 200 µg/mL; IC50 (MT4 [29]): > 40 µg/mL; IC50 (Vero [30]): > 400 µg/mL; IC50 (HeLa [31]): > 400 µg/mL; IC50 (Vero [32]): > 200 µg/mL; IC50 (MDCK [33]): > 100 µg/mL; IC50 (MDCK [34]): > 100 µg/mL
